Source: ChEMBL document CHEMBL1130043, “Chemometric methodologies in a quantitative structure-activity relationship study: the antibacterial activity of 6-aminoquinolones” (1997)

Key:
Type in all cases: functional
[1] = test system: Acinetobacter calcoaceticus; test: Antibacterial activity against Acinetobacter calcoaceticus OSMPV 113 (Gram negative) strain.
[2] = test system: Escherichia coli; test: Antibacterial activity against Escherichia coli ATCC 8739(Gram negative) strain.
[3] = test system: Escherichia coli; test: Antibacterial activity against Escherichia coli ISF 432(Gram negative) strain.
[4] = test system: Enterobacter cloacae; test: Antibacterial activity against Enterobacter cloacae OMNFI 174 (Gram negative) strain.
[5] = test system: Klebsiella pneumoniae; test: Antibacterial activity against Klebsiella pneumoniae ATCC 10031 (Gram negative) strain.
[6] = test system: Providencia stuartii; test: Antibacterial activity against Providencia stuartii CNUR 5(Gram negative) strain.
[7] = test system: Pseudomonas aeruginosa; test: Antibacterial activity against Pseudomonas aeruginosa ATCC 9027(Gram negative) strain.
[8] = test system: Shigella; test: Antibacterial activity against Shigella enteritidis (Gram negative) strain.
[9] = test system: Staphylococcus epidermidis; test: Antibacterial activity against Staphylococcus epidermidis HCF Berset C (Gram positive) strain.
[10] = test system: Staphylococcus epidermidis; test: Antibacterial activity against Staphylococcus epidermidis CPHL A2 (Gram positive) strain, activity is expressed as log2MIC.
[11] = test system: Staphylococcus aureus; test: Antibacterial activity against Staphylococcus aureus MPR 5 (Gram positive) strain.
[12] = test system: Enterococcus faecalis; test: Antibacterial activity against Streptococcus faecalis LEP Br (Gram positive) strain.
[13] = test system: Staphylococcus aureus; test: Antibacterial activity against Staphylococcus aureus ATCC 6538 (Gram positive) strain.

SMILES	Log2 MIC [1]	Log2 MIC [2]	Log2 MIC [3]	Log2 MIC [4]	Log2 MIC [5]	Log2 MIC [6]	Log2 MIC [7]	Log2 MIC [8]	Log2 MIC [9]	Log2 MIC [10]	Log2 MIC [11]	Log2 MIC [12]	Log2 MIC [13]
CN1CCN(c2cc3c(cc2N)c(=O)c(C(=O)O)cn3C2CC2)CC1	2	9	12	9	12	4	5	9	5	6	6	2	6
CC(C)(C)n1cc(C(=O)O)c(=O)c2cc(N)c(N3CCCC3)cc21	3	10	10	3	10	1	1	2	4	4	4	0	5
CC(C)(C)n1cc(C(=O)O)c(=O)c2cc(N)c(N3CCSCC3)cc21	8	11	12	6	12	5	5	6	8	8	9	4	9
Nc1cc2c(=O)c(C(=O)O)cn(C3CC3)c2cc1N1CCSC1	0	8	7	3	8	0	0	2	1	1	0	0	1
Cc1c(N2CC(C)NC(C)C2)c(N)cc2c(=O)c(C(=O)O)cn(C3CC3)c12 (configuration not stated)	6	11	12	8	12	6	6	9	6	7	7	3	7
CC(C)(C)n1cc(C(=O)O)c(=O)c2cc(N)c(N3CCc4ccccc43)cc21	4	10	10	4	10	5	2	4	5	5	6	1	6
CC1CN(c2cc3c(cc2N)c(=O)c(C(=O)O)cn3C2CC2)CC(C)N1 (configuration not stated)	4	12	12	8	12	5	6	9	5	6	4	2	4
CC1CN(c2cc3c(cc2N)c(=O)c(C(=O)O)cn3C2CC2)CCN1 (configuration not stated)	3	12	12	9	12	3	6	9	5	5	3	2	3
CC(C)(C)n1cc(C(=O)O)c(=O)c2cc(N)c(N3CCc4ccccc4C3)cc21	6	10	10	4	10	5	2	4	7	8	8	4	9
